Measured values as given in paper PMC11435220, “Anticancer Activity of Imidazolyl Gold(I/III) Compounds in Non-Small Cell Lung Cancer Cell Lines” (Pharmaceuticals, 2024).

Assays:
[1] = test system: H522; experiment: MTT viability assay, H522; type: cell-based, human; conditions: mean ± span, 48 h treatment, cell line without KRAS mutation
Procedure: (§1) NSCLC cell lines were obtained from the Hamon Center for Therapeutic Oncology Research (UT Southwestern Medical Center). IMR-90 human lung fibroblasts were from ATCC (CC-186). All cell lines were maintained and treated in RPMI medium (Cytiva (Shanghai, China), #SH30027), supplemented with 10% heat-inactivated FBS (Millipore Sigma (Darmstadt, Germany), F0394).
(§2) 5000–10,000 cells/0.1 mL/well were seeded in 96-well plates to achieve 70% confluence after 24 h. All drug stock solutions were prepared fresh in DMSO at a concentration of 10 mM. The day after cell plating, we added 0.1 mL of medium containing the appropriate drug dilutions. After 48 h of treatment, 10 μL of MTT solution (5 mg/mL) was added to each well. After 4 h incubation, the medium was aspirated, and the formazan salts dissolved in 200 μL DMSO/well for 10 min at 37 °C. The absorbance was read at 570 nm (OD 570 nm). Data are represented as mean ± SD of two independent experiments.
(§3) Statistical and data analysis was performed using GraphPad Prism (v10). IC50 values were calculated using a three-parameter non-linear regression model with log(inhibitor) vs. response. For the TxrR activity statistics, the groups were compared using a two-way ANOVA followed by Dunnett’s multiple comparisons with alpha = 0.05. The correlation between IC50 values and TxrR activity was achieved using Pearson correlation with alpha = 0.05.

[2] = test system: H661; experiment: MTT viability assay, H661; type: cell-based, human; conditions: mean ± span, 48 h treatment, cell line without KRAS mutation
Procedure: as §1, §2, §3

[3] = test system: H1395; experiment: MTT viability assay, H1395; type: cell-based, human; conditions: mean ± span, 48 h treatment, cell line without KRAS mutation
Procedure: as §1, §2, §3

[4] = test system: H1993; experiment: MTT viability assay, H1993; type: cell-based, human; conditions: mean ± span, 48 h treatment, cell line without KRAS mutation
Procedure: as §1, §2, §3

[5] = test system: A549; experiment: MTT viability assay, A549; type: cell-based, human; conditions: mean ± span, 48 h treatment, cell line with KRAS mutation
Procedure: as §1, §2, §3

[6] = test system: H460; experiment: MTT viability assay, H460; type: cell-based, human; conditions: mean ± span, 48 h treatment, cell line with KRAS mutation
Procedure: as §1, §2, §3

[7] = test system: H1792; experiment: MTT viability assay, H1792; type: cell-based, human; conditions: mean ± span, 48 h treatment, cell line with KRAS mutation
Procedure: as §1, §2, §3

[8] = test system: HCC-44; experiment: MTT viability assay, HCC-44; type: cell-based, human; conditions: mean ± span, 48 h treatment, cell line with KRAS mutation
Procedure: as §1, §2, §3

[9] = test system: H1355; experiment: MTT viability assay, H1355; type: cell-based, human; conditions: mean ± span, 48 h treatment, cell line with KRAS mutation
Procedure: as §1, §2, §3

[10] = test system: human NSCLC cell lines without KRAS mutations; experiment: MTT assay, average across NSCLC cell lines without KRAS mutations; type: cell-based; conditions: average across cell lines without KRAS mutations (H522, H661, H1395, H1993), 48 h, read-out: IC50 * averaged values
Procedure: as §1, §2, §3

[11] = test system: human NSCLC cell lines with KRAS mutations; experiment: MTT assay, average across NSCLC cell lines with KRAS mutations; type: cell-based; conditions: 48 h, read-out: IC50 * averaged values
Procedure: as §1, §2, §3

[12] = test system: TrxR in H522 cell lysates; experiment: Thioredoxin reductase activity in lysates of treated H522 cells; type: cell-based, human; conditions: for TrxR activity reduction / inhibition: H522, 24 h treatment, stated for both cell lines; for Mean Diff. TrxR activity vs. veh: H522 lysate, 24 h treatment at 5 μM
Procedure: (§4) The enzymatic activity of TrxR in the A549 and H522 cell lysates was measured using the TrxR assay Kit (Abcam ab83463) following the manufacturer’s instructions. This kit is based on the TxrR-mediated reduction of the colorless DTNB into TNB2—(yellow). Briefly, cells were plated to reach 70% confluence on a 100-mm dish in one day. They were treated with 5 μM of the gold compounds or the equivalent quantity of DMSO for 24 h. Then, cells were washed in PBS 1X, detached, and lysed in 100 μL of cold TrxR assay buffer supplemented with the Proteinase Inhibitor Cocktail. 20 μg and 40 μg of total proteins were used for the A549 and the H522, respectively. The DTNB substrate was added to samples with or without TrxR inhibitor (provided with the kit) in 96-well plates. The OD412 was measured soon after the substrate addition (A1) and then after 25, 60, 90, and 110 min (An) at 25 °C using a FLUOstar Omega Microplate Reader (BGM Labtech, Chicago, IL, USA). Data analysis was performed following the manufacturer’s instructions. The OD of TNB2, generated by TrxR in every condition, is:ΔA412 nm = (AnAB − AnINH) − (AB − A1INH) where AB is the assay buffer, and INH is the inhibitor. The TrxR activity is:(2) ΔB/Tn−T1×mg of protein lysate×sample dilution factor=(nmol/min)/mg=mU/mg where ΔB is the TNB amount calculated applying ΔA412 nm to TNB standard curve (in nmol), T1 is the time of the first reading (A1AB, and A1INH) (in min), Tn is the time of the second reading (AnAB and AnINH) (in min). The residual TxrR activity (%) was calculated by normalizing the TxrR activity for each compound with the matching vehicle values at every n time point.
as §3

[13] = test system: TrxR in A549 cell lysates; experiment: Thioredoxin reductase activity in lysates of treated A549 cells; type: cell-based, human; conditions: for TrxR activity reduction / inhibition: A549, 24 h treatment, stated for both cell lines; for Mean Diff. TrxR activity vs. veh: A549 lysate, 24 h treatment at 5 μM
Procedure: as §4, §3

[14] = Solution stability by UV-visible spectra over time; type: physicochemical; conditions: for percent concentration reduction estimated from UV spectra: 100 µM solution, within an hour; for stability in solution: UV-visible spectra over time, DMSO, methanol, PBS buffered solutions
Procedure: Stability studies were led by acquiring UV−visible spectra of 100 µM DMSO or methanol solutions of compounds 1∓8 over time (Figures S19–S29 in Supplementary Materials). […] The stability of NHC-AuX3 complexes (with X = Cl, compounds 1 and 2, with X = Br, compounds 5 and 6) was affected by the nature of both the substituents on the imidazolyl ligand and of the halide, showing a small decrease of the UV bands maxima in an hour. By analyzing the spectral data of compounds 1 and 2, a percent concentration reduction of about 4–5% was estimated within an hour, grading them eligible for biological tests. The partial instability may be attributed to the formation of cationic bis-carbeneAuCl2 species (Equation (1)), with the [bis-carbeneAuX2]^+ and the respective AuX2^−; these ions were actually detected as positive and negative ions in the ESI-MS spectra (see Figures S12 and S13). […] Additionally, the (+)ESI MS spectrum of the acetonitrile solution of compound 6 is particularly rich in positive ions (Figure S16). As concerns the mono-/bis-carbene formation, it is likely initiated by the large trans effect of the carbene ligands, which induces the chemical lability on the trans halide, triggers […], the formation of bis-carbeneAu(III) species, and AuX2^− or AuX4^− anions:2[NHC-AuX3] ⇔ [[(NHC)2AuX2] [AuX2^−] + 2X(1) […]
The stability of the samples 1-8 in DMSO solution was assayed by UV-visible spectroscopy. Spectra were acquired using the Shimadzu UV-2700i spectrophotometer, equipped with the Shimadzu CPS-100 Peltier, at 293 K. Unless diversely specified, 100 µM DMSO solutions of the 1-8 compounds were prepared and spectra were acquired each 10 minutes for a total of 60 minutes. The spectra obtained are reported as following.
Figure S19. UV-Visible Spectra acquired for complex 1.
Figure S20. UV-Visible Spectra acquired for complex 2. […]

Row | Compound | IC50 [1] [µM] | IC50 [2] [µM] | IC50 [3] [µM] | IC50 [4] [µM] | IC50 [5] [µM] | IC50 [6] [µM] | IC50 [7] [µM] | IC50 [8] [µM] | IC50 [9] [µM] | IC50 [10] [µM] | IC50 [11] [µM] | TrxR activity reduction / inhibition [12] | Mean Diff. TrxR activity vs. veh ([12]; reading at 25 min) [%] | Mean Diff. TrxR activity vs. veh ([12]; reading at 60 min) [%] | Mean Diff. TrxR activity vs. veh ([12]; reading at 90 min) [%] | Mean Diff. TrxR activity vs. veh ([12]; reading at 110 min) [%] | Mean Diff. TrxR activity vs. veh ([13]; reading at 25 min) [%] | Mean Diff. TrxR activity vs. veh ([13]; reading at 60 min) [%] | Mean Diff. TrxR activity vs. veh ([13]; reading at 90 min) [%] | Mean Diff. TrxR activity vs. veh ([13]; reading at 110 min) [%] | also measured
1 | Cn1cc[n+](C)[c]1[Au-]([Cl])([Cl])[Cl] [Compound 1] | 75 ± 0.89 | 47 ± 1.1 | 47 ± 0.4 | 37 ± 1.3 | > 100 | 52 ± 1.2 | 60 ± 1.4 | 45 ± 0.25 | 41 ± 0.33 | 52 | 62 | 20–30% | 15.84 | −8.894 | −20.1 | −23.89 | −16.73 | −13.1 | −26.55 | −32.38 | TrxR activity reduction / inhibition [13]: 20–30%; percent concentration reduction estimated from UV spectra [14]: 4–5%
2 | C[n+]1ccn(Cc2ccccc2)[c]1[Au-]([Cl])([Cl])[Cl] [Compound 2] | 53 ± 2.1 | 45 ± 1.7 | 17 ± 0.8 | 6.1 ± 0.76 | 56 ± 1.6 | 65 ± 2.2 | 24 ± 0.98 | 26 ± 1.3 | 34 ± 1.4 | 30 | 41 | 20–30% | 3.864 | −19.16 | −23.38 | −31.46 | −5.148 | −11.64 | −22.67 | −30.44 | TrxR activity reduction / inhibition [13]: 20–30%; percent concentration reduction estimated from UV spectra [14]: 4–5%
3 | C[n+]1ccn(Cc2ccccc2)[c]1[Au-][Br] [Compound 4] | 5.3 ± 0.88 | 7 ± 0.81 | 11 ± 0.88 | 12 ± 1.03 | 19 ± 1 | 11 ± 1.2 | 16 ± 0.94 | 14 ± 1.1 | 8.1 ± 0.66 | 9 | 14 |  | 23.18 | 7.116 | −0.3654 | −18.72 | −3.861 | −2.183 | −18.13 | −21.37 | 
4 | Cn1cc[n+](C)[c]1[Au-]([Br])([Br])[Br] [Compound 5] | 52 ± 0.37 | 42 ± 1.7 | 49 ± 0.11 | 70 ± 1.6 | 49 ± 0.33 | > 100 | > 100 | 32 ± 1.6 | 12 ± 0.72 | 53 | 59 | 30–40% | −35.55 | −39.68 | −41.1 | −45.26 | −11.58 | −29.11 | −31.74 | −33.68 | TrxR activity reduction / inhibition [13]: 30–40%; stability in solution [14]: least stable in solution
5 | C[n+]1ccn(Cc2ccccc2)[c]1[Au-]([Br])([Br])[Br] [Compound 6] | 55 ± 1.9 | 26 ± 1.5 | 62 ± 2.4 | 5.6 ± 0.76 | 13 ± 1.03 | 37 ± 1.8 | 15 ± 1.1 | 19 ± 1.4 | 59 ± 1.7 | 37 | 29 | 30–40% | −31.68 | −37.22 | −39.82 | −46.06 | −17.37 | −2.183 | −31.09 | −38.86 | TrxR activity reduction / inhibition [13]: 30–40%; stability in solution [14]: least stable in solution
6 | [bis-(1,3-dimethyl-imidazoly-2yl)]gold(I) dibromoaurate [Compound 3] | 15 ± 1.1 | 27 ± 1.2 | 11 ± 0.63 | 11 ± 0.96 | 91 ± 1.03 | 68 ± 0.1 | 50 ± 1.2 | 10 ± 1.1 | 9.1 ± 1.03 | 16 | 46 |  | −44.05 | −47.07 | −47.31 | −50.17 | −21.88 | −4.221 | −8.42 | −9.068 | 
